Patent US8871753B2, “Macrocyclic compounds and their use as kinase inhibitors” (Incyte Corporation, priority 2008, dated 2014)

How the values were obtained:
Format in all cases: biochemical
[1] = target: T1, human JAK1 (a.a. 837-1142) (Homo sapiens, UniProt P23458); experiment: In vitro JAK kinase assay (HTRF, phosphorylation of a biotinylated peptide), JAK1; details: Table B1; read-out: JAK1 IC50
T1 construct: human JAK1 (a.a. 837-1142); His tag (N); made in house; host or cells: insect cells (baculovirus)
T1 sequence (P23458 849-1154): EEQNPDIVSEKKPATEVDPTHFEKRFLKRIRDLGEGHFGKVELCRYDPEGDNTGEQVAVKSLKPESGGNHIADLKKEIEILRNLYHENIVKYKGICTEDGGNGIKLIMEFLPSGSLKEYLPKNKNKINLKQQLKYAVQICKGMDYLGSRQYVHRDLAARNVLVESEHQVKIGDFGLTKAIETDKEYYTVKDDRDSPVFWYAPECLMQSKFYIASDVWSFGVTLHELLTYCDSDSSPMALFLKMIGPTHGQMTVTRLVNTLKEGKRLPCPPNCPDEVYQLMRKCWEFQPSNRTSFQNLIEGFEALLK
How it was run: (§1)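 Phosphorylation of a biotinylated peptide by the JAK kinase domain, detected by HTRF with Eu-Py20 and SA-APC. ATP was 90 μM for JAK1, 30 μM for JAK2 and 3 μM for JAK3. Reactions ran 1 h at room temperature and were stopped with EDTA, followed by 40 min antibody binding.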

TYK2 = TYK2 (Homo sapiens, UniProt P29597); experiment: TYK2 kinase inhibition (Table A1); details: Table B1
Sequence of TYK2 (P29597 whole entry): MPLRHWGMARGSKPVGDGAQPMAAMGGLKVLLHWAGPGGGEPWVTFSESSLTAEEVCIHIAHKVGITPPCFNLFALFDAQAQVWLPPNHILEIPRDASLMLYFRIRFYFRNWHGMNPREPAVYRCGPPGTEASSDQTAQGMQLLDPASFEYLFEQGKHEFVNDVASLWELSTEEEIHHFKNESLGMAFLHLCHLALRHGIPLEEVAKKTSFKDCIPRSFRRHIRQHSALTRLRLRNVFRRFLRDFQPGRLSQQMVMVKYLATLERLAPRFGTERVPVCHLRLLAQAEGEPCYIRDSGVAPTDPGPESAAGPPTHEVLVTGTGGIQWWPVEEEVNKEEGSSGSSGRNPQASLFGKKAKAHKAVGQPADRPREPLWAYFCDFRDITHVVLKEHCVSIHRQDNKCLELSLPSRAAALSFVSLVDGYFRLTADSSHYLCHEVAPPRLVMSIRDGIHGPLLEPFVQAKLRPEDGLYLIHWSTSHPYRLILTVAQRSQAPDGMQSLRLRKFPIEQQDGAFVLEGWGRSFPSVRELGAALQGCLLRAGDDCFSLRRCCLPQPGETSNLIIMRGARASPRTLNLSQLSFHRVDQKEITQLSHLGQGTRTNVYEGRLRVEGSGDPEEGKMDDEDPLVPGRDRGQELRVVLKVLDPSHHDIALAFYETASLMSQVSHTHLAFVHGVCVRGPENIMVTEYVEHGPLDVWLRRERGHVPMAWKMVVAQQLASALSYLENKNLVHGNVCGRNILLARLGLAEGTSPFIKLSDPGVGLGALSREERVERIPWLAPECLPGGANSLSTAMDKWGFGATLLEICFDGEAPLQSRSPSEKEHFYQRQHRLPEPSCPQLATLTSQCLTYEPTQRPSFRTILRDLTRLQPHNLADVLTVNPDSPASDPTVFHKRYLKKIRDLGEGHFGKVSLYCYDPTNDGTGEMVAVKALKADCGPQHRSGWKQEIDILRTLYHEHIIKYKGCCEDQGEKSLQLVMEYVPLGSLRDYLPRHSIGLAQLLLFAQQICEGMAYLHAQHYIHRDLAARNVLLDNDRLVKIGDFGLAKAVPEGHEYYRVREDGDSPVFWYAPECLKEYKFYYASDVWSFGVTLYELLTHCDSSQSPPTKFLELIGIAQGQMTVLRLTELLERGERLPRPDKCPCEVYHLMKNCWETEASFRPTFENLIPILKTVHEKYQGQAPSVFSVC

[2] = target: T2, human JAK3 (a.a. 781-1124) (Homo sapiens, UniProt P52333); experiment: In vitro JAK kinase assay (HTRF, phosphorylation of a biotinylated peptide), JAK3; details: Table B1
T2 construct: JAK3 (a.a. 781-1124); His tag (N); made in house; host or cells: insect cells (baculovirus)
T2 sequence (P52333 781-1124): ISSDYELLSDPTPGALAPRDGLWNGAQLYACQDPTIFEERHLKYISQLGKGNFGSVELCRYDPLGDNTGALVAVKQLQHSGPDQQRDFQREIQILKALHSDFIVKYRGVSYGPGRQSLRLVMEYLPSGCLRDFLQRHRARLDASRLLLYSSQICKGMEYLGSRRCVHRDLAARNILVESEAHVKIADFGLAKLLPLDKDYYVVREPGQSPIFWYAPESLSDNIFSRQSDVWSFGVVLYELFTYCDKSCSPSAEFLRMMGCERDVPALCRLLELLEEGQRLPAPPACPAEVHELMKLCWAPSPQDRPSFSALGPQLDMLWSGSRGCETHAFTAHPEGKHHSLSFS
How it was run: as §1

[3] = target: T3, human JAK2 (a.a. 828-1132) (Homo sapiens, UniProt O60674); experiment: In vitro JAK kinase assay (HTRF, phosphorylation of a biotinylated peptide), JAK2; details: Table B1
T3 construct: JAK2 (a.a. 828-1132); His tag (N); made in house; host or cells: insect cells (baculovirus)
T3 sequence (O60674 828-1132): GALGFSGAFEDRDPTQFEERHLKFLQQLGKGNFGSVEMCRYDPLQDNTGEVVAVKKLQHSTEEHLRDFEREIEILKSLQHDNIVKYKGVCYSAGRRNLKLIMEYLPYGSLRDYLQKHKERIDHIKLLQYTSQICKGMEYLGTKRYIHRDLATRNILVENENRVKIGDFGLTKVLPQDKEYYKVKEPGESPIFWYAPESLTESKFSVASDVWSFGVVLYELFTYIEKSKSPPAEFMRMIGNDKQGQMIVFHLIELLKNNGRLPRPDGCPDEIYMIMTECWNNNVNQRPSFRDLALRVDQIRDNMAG
How it was run: as §1

[4] = target: T4, Recombinant Human Anaplastic Lymphoma Kinase (Homo sapiens, UniProt Q9UM73); experiment: ALK HTRF kinase assay; details: compound at a concentration of 500 nM or 1 mM (not specified); cells shown as percentage
T4 construct: purchased Invitrogen, Carlsbad, Calif
T4 sequence (Q9UM73 19-1620): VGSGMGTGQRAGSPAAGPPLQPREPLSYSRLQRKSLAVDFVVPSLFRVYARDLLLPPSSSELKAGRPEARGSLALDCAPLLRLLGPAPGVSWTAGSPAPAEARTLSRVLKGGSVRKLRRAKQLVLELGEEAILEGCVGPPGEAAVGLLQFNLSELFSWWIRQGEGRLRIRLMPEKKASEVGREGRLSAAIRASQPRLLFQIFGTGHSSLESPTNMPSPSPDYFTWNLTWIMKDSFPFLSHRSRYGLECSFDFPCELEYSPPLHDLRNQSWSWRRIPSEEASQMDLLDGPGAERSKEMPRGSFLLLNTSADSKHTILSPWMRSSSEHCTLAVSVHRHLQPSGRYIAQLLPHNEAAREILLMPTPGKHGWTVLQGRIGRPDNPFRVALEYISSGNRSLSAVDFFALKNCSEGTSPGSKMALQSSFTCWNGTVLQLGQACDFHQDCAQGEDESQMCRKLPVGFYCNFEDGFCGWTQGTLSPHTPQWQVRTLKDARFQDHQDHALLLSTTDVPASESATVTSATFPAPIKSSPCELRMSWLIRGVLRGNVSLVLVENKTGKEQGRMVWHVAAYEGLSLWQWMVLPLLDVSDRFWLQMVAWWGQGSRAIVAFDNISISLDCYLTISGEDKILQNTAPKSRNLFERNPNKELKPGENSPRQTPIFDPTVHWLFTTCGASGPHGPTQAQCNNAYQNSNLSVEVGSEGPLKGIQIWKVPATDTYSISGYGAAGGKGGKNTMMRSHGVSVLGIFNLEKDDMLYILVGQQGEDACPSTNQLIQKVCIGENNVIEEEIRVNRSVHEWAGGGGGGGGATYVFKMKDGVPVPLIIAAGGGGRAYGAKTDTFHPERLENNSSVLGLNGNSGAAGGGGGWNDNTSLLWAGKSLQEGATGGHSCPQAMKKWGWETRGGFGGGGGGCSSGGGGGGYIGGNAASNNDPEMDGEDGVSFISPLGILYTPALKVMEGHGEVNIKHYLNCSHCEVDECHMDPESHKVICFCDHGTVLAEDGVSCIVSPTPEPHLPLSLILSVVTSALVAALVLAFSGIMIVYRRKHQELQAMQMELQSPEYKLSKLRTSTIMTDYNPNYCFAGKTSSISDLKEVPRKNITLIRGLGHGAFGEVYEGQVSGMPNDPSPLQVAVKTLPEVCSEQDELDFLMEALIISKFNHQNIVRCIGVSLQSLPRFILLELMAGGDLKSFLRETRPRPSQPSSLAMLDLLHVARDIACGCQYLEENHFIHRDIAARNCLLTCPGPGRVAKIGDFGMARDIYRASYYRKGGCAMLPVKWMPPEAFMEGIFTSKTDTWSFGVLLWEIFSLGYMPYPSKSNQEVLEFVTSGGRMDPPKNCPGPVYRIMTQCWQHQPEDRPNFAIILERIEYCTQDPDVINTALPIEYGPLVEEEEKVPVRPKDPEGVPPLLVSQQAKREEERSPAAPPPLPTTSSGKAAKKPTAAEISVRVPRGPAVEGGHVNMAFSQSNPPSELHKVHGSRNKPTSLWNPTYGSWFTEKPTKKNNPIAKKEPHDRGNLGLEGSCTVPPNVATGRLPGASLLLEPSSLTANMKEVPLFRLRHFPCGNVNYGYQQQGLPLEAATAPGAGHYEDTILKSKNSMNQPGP
How it was run: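 TR-FRET read-out (Eu anti-pTyr antibody + streptavidin-APC) of biotin-peptide phosphorylation by recombinant human enzyme; IC50 by sigmoidal fit with top/bottom baselines and Hill slope.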

| SMILES | IC50 [1] | IC50 (TYK2) | IC50 [2] | IC50 [3] | ALK % of inhibition at a concentration of 500 nM or 1 mM [4] |
| --- | --- | --- | --- | --- | --- |
| O=C(Nc1ccc2cc1CCc1cncc(c1)Nc1ncc(Cl)c(n1)N2)N1CCN(C(=O)c2ccccc2)CC1 [Example B286, 4-Benzoyl-N-[6-chloro-2,4,8,18,22-pentaazatetracyclo[14.3.1.1(3,7).1(9,13)]docosa-1(20),3(22),4,6,9(21),10,12,16,18-nonaen-12-yl]piperazine-1-carboxamide bis(trifluoroacetate)] | 43 nM | > 200 nM | > 200 nM | > 200 nM | 51% |
| O=C(Nc1ccc2cc1CCc1cncc(c1)Nc1ncc(Cl)c(n1)N2)N1CCN(Cc2ccccc2)CC1 [Example B287, 4-Benzyl-N-[6-chloro-2,4,8,18,22-pentaazatetracyclo[14.3.1.1(3,7).1(9,13)]docosa-1(20),3(22),4,6,9(21),10,12,16,18-nonaen-12-yl]piperazine-1-carboxamidetris(trifluoroacetate)] | 15 nM | > 200 nM | > 200 nM | 90 nM | 46% |
| CN(C(=O)Nc1ccc2cc1CCc1cncc(c1)Nc1ncc(Cl)c(n1)N2)[C@H]1CCNC1 [Example B288, N′-[6-Chloro-2,4,8,18,22-pentaazatetracyclo[14.3.1.1(3,7).1(9,13)]docosa-1(20),3(22),4,6,9(21),10,12,16,18-nonaen-12-yl]-N-methyl-N-[(3S)-pyrrolidin-3-yl]urea tris(trifluoroacetate)] | 42 nM | > 200 nM | > 200 nM | 180 nM | 18% |
| O=C(Nc1ccc2cc1CCc1cncc(c1)Nc1ncc(Cl)c(n1)N2)N1CCN(c2ccccn2)CC1 [Example B289, N-[6-Chloro-2,4,8,18,22-pentaazatetracyclo[14.3.1.1(3,7).1(9,13)]docosa-1(20),3(22),4,6,9(21),10,12,16,18-nonaen-12-yl]-4-pyridin-2-ylpiperazine-1-carboxamide tris(trifluoroacetate)] | 17 nM | 85 nM | > 200 nM | 134 nM | 65% |
| O=C(Nc1ccc2cc1CCc1cccc(c1)Nc1ncc(Cl)c(n1)N2)N1CCN(c2ccccn2)CC1 [Example B290, N-[6-Chloro-2,4,8,22-tetraazatetracyclo[14.3.1.1(3,7).1(9,13)]docosa-1(20),3(22),4,6,9(21),10,12,16,18-nonaen-12-yl]-4-pyridin-2-ylpiperazine-1-carboxamide bis(trifluoroacetate)] | 82 nM | 59 nM | > 200 nM | 89 nM | 50% |
| CN(C(=O)Nc1ccc2cc1CCc1cncc(c1)Nc1ncc(Cl)c(n1)N2)[C@H]1CCN(C(=O)c2ccccc2)C1 [Example B291, N-[(3S)-1-Benzoylpyrrolidin-3-yl]-N′-[6-chloro-2,4,8,18,22-pentaazatetracyclo[14.3.1.1(3,7).1(9,13)]docosa-1(20),3(22),4,6,9(21),10,12,16,18-nonaen-12-yl]-N-methylurea bis(trifluoroacetate)] | 28 nM | 199 nM | > 200 nM | 100 nM | 58% |
| O=C(Nc1ccc2cc1CCc1cncc(c1)Nc1ncc(Cl)c(n1)N2)N1CCN(c2ccccc2)CC1 [Example B292, N-[6-Chloro-2,4,8,18,22-pentaazatetracyclo[14.3.1.1(3,7).1(9,13)]docosa-1(20),3(22),4,6,9(21),10,12,16,18-nonaen-12-yl]-4-phenylpiperazine-1-carboxamide tris(trifluoroacetate)] | 32 nM | 100 nM | > 200 nM | > 200 nM | 68% |
| O=C(Nc1ccc2cc1CCc1cncc(c1)Nc1ncc(Cl)c(n1)N2)N1CCN(c2ccncc2)CC1 [Example B293, N-[6-Chloro-2,4,8,18,22-pentaazatetracyclo[14.3.1.1(3,7).1(9,13)]docosa-1(20),3(22),4,6,9(21),10,12,16,18-nonaen-12-yl]-4-pyridin-4-ylpiperazine-1-carboxamide tetrakis(trifluoroacetate)] | 60 nM | 150 nM | > 200 nM | > 200 nM | 45% |
| O=C(Nc1ccc2cc1CCc1cncc(c1)Nc1ncc(Cl)c(n1)N2)N1CCN(c2cnccn2)CC1 [Example B294, N-[6-Chloro-2,4,8,18,22-pentaazatetracyclo[14.3.1.1(3,7).1(9,13)]docosa-1(20),3(22),4,6,9(21),10,12,16,18-nonaen-12-yl]-4-pyrazin-2-ylpiperazine-1-carboxamide tetrakis(trifluoroacetate)] | 19 nM | 85 nM | > 200 nM | 150 nM | 54% |
| O=C(Nc1ccc2cc1CCc1cncc(c1)Nc1ncc(Cl)c(n1)N2)N1CCN(c2ccccc2F)CC1 [Example B295, N-[6-Chloro-2,4,8,18,22-pentaazatetracyclo[14.3.1.1(3,7).1(9,13)]docosa-1(20),3(22),4,6,9(21),10,12,16,18-nonaen-12-yl]-4-(2-fluorophenyl)piperazine-1-carboxamide tris(trifluoroacetate)] | 30 nM | 150 nM | > 200 nM | 199 nM | 50% |
| O=C(c1coc(Nc2ccc3cc2CCc2cccc(c2)Nc2ncc(Cl)c(n2)N3)n1)N1CCN2CCCC2C1 (centres unmarked) [Example B296, 6-Chloro-N-[4-(hexahydropyrrolo[1,2-a]pyrazin-2(1H)-ylcarbonyl)-2,3-oxazol-2-yl]-2,4,8,22-tetraazatetracyclo[14.3.1.1(3,7).1(9,13)]docosa-1(20),3(22),4,6,9(21),10,12,16,18-nonaen-12-amine bis(trifluoroacetate)] | 8.3 nM | 48 nM | > 200 nM | 26 nM | 33% |
| O=C(Nc1ccc2cc1CCc1cncc(c1)Nc1ncc(Cl)c(n1)N2)N1CCN(c2ccc(F)cc2)CC1 [Example B297, N-[6-Chloro-2,4,8,18,22-pentaazatetracyclo[14.3.1.1(3,7).1(9,13)]docosa-1(20),3(22),4,6,9(21),10,12,16,18-nonaen-12-yl]-4-(4-fluorophenyl)piperazine-1-carboxamide tris(trifluoroacetate)] | 27 nM | 36 nM | > 400 nM | 67 nM | 66% |
| COc1ccccc1N1CCN(C(=O)Nc2ccc3cc2CCc2cncc(c2)Nc2ncc(Cl)c(n2)N3)CC1 [Example B298, N-[6-Chloro-2,4,8,18,22-pentaazatetracyclo[14.3.1.1(3,7).1(9,13)]docosa-1(20),3(22),4,6,9(21),10,12,16,18-nonaen-12-yl]-4-(2-methoxyphenyl)piperazine-1-carboxamide tris(trifluoroacetate)] | 29 nM | 208 nM | > 400 nM | 341 nM | 62% |
| COc1ccc(N2CCN(C(=O)Nc3ccc4cc3CCc3cncc(c3)Nc3ncc(Cl)c(n3)N4)CC2)cc1 [Example B299, N-[6-Chloro-2,4,8,18,22-pentaazatetracyclo[14.3.1.1(3,7).1(9,13)]docosa-1(20),3(22),4,6,9(21),10,12,16,18-nonaen-12-yl]-4-(4-methoxyphenyl)piperazine-1-carboxamide tris(trifluoroacetate)] | 30 nM | 82 nM | > 400 nM | 180 nM | 74% |
| N#Cc1ccccc1N1CCN(C(=O)Nc2ccc3cc2CCc2cncc(c2)Nc2ncc(Cl)c(n2)N3)CC1 [Example B300, N-[6-Chloro-2,4,8,18,22-pentaazatetracyclo[14.3.1.1(3,7).1(9,13)]docosa-1(20),3(22),4,6,9(21),10,12,16,18-nonaen-12-yl]-4-(2-cyanophenyl)piperazine-1-carboxamide tris(trifluoroacetate)] | 16 nM | 27 nM | > 400 nM | 160 nM | 77% |
| O=C(Nc1ccc2cc1CCc1cncc(c1)Nc1ncc(Cl)c(n1)N2)N1CCN(c2ccc(C(F)(F)F)cn2)CC1 [Example B301, N-[6-Chloro-2,4,8,18,22-pentaazatetracyclo[14.3.1.1(3,7).1(9,13)]docosa-1(20),3(22),4,6,9(21),10,12,16,18-nonaen-12-yl]-4-[5-(trifluoromethyl)pyridin-2-yl]piperazine-1-carboxamide tris(trifluoroacetate)] | 35 nM | 75 nM | > 400 nM | > 400 nM | 58% |
